Read-outs that look alike come from different tables or passages of the source.
Columns and labels:
[1] = biological target: T1, human cloned 5-HT2A receptor, expressed in L929 cells (Homo sapiens, UniProt P28223); test: In vitro radioligand binding affinity for 5-HT2A receptor ([125I]R91150)
T1 construct: expressed in transfected cells; host or cells: L929 cells
Description: (§1) The interaction of the compounds of Formula (I) with 5-HT2A and 5-HT2C receptors was assessed in in vitro radioligand binding experiments. In general, a low concentration of a radioligand with a high binding affinity for the receptor is incubated with a sample of a tissue preparation enriched in a particular receptor (1 to 5 mg tissue) in a buffered medium (0.2 to 5 ml). During the incubation, the radioligands bind to the receptor. When equilibrium of binding is reached, the receptor bound radioactivity is separated from the non-bound radioactivity, and the receptor bound activity is counted. The interaction of the test compounds with the receptors is assessed in competition binding experiments. Various concentrations of the test compound are added to the incubation mixture containing the tissue preparation and the radioligand. Binding of the radioligand will be inhibited by the test compound in proportion to its binding affinity and its concentration. The affinities of the compounds for the 5-HT2 receptors were measured by means of radioligand binding studies conducted with: (a) human cloned 5-HT2A receptor, expressed in L929 cells using [^125I]R91150 as radioligand and (b) human cloned 5-HT2C receptor, expressed in CHO cells using [^3H]mesulergine as radioligand.
(§2) The results are given in Table 3 below in terms of pIC50 values for the respective compounds.

[2] = biological target: T2, human cloned 5-HT2C receptor, expressed in CHO cells (Homo sapiens, UniProt P28335); test: In vitro radioligand binding affinity for 5-HT2C receptor ([3H]mesulergine)
T2 construct: expressed in transfected cells; host or cells: CHO cells
T2 sequence (P28335 33-458): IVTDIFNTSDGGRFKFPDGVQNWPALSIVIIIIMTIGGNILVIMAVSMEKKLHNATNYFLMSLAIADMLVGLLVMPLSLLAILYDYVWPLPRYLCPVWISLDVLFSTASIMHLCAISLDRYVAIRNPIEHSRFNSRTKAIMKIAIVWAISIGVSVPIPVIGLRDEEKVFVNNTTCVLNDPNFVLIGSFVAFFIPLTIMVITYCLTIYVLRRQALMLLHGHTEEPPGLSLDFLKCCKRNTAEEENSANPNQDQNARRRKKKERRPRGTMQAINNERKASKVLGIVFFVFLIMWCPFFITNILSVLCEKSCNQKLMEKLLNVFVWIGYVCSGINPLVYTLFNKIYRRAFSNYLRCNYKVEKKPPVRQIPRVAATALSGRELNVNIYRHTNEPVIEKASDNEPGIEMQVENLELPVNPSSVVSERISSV
Description: as §1, §2

[3] = biological target: T3, human Dopamine D2L receptor (Homo sapiens, UniProt P14416); test: In vitro binding affinity for human D2L receptor ([3H]Spiperone)
T3 construct: expressed in transfected cells; host or cells: CHO cells (membranes)
T3 sequence (P14416 whole entry): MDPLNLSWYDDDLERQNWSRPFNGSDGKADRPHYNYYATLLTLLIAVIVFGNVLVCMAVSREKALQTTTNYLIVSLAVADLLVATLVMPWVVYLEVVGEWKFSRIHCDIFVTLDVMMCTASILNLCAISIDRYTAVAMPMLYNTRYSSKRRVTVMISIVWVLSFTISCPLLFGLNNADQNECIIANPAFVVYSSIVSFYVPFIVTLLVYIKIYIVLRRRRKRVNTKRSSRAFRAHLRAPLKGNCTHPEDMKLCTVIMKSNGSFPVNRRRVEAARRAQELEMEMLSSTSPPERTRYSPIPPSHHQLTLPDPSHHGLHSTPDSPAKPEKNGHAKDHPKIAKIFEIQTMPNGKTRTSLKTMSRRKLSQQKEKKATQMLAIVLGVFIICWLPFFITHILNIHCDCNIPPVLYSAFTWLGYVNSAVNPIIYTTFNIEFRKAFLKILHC
Description: Frozen membranes of human Dopamine D2L receptor-transfected CHO cells were thawed, briefly homogenized using an Ultra-Turrax T25 homogenizer and diluted in Tris-HCl assay buffer containing NaCl, CaCl2, MgCl2, KCl ([…] respectively, adjusted to pH 7.7 with HCl) to an appropriate protein concentration optimized for specific and non-specific binding. Radioligand [^3H]Spiperone (NEN, specific activity ˜70 Ci/mmol) was diluted in assay buffer at a concentration of 2 nmol/L. Prepared radioligand (50 μl), along with 50 μl of either the 10% DMSO control, Butaclamol (10^−6 mol/l final concentration), or compound of interest, was then incubated (30 min, 37° C.) with 400 μl of the prepared membrane solution. Membrane-bound activity was filtered through a Packard Filtermate harvester onto GF/B Unifilter plates and washed with ice-cold Tris-HCl buffer (50 mM; pH 7.7; 6×0.5 ml). Filters were allowed to dry before adding scintillation fluid and counting in a Topcount scintillation counter. Percentage specific bound and competition binding curves were calculated using S-Plus software (Insightful).
as §2
The values in the Table are pIC50 values and were determined in accordance with the procedure given above for determining D2 affinity.

[4] = human cloned receptor in L929 cells, [125I]R91150, read-out: 5-HT2A pIC50 (converted)
[5] = human cloned receptor in CHO cells, [3H]mesulergine, read-out: 5-HT2C pIC50 (converted)
[6] = human D2L-transfected CHO cell membranes, [3H]Spiperone, read-out: D2L pIC50 (converted)
[7] = Table 4, comparative data with prior art analogue

T1 sequence (P28223 whole entry): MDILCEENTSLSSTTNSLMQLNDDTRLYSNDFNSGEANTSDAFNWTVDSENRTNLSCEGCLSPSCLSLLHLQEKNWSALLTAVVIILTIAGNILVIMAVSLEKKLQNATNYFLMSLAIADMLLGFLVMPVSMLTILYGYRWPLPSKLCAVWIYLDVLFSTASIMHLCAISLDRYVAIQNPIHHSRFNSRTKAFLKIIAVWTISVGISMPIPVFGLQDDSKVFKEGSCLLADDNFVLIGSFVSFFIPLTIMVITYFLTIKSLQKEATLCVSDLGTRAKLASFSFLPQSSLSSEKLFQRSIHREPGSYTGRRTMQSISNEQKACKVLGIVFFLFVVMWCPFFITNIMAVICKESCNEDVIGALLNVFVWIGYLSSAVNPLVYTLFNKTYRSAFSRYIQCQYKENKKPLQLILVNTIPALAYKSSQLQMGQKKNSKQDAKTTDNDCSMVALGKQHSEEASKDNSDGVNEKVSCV

**Q.** `CC1CCCN1C[C@H]1C[C@@H]2c3ccccc3Cc3ccc(F)cc3[C@H]2O1` (mixture of isomers) [Compound 16] was tested. Which IC50 [1, 4] did it give?
**A.** 8.51 nM

**Q.** And the IC50 [2, 5]?
**A.** 4.37 nM

**Q.** And the IC50 [3, 6]?
**A.** 40.7 nM

**Q.** Which IC50 [1, 4] does the source give for `Fc1ccc2c(c1)C1OC(CN3CCCC3)CC1c1ccccc1C2` (stereo not drawn) [Compound 4] here?
**A.** 4.68 nM

**Q.** And the IC50 [2, 5]?
**A.** 5.25 nM

**Q.** And the IC50 [3, 6]?
**A.** 24 nM

**Q.** `CC(=O)OCCN1CCN(C[C@H]2C[C@@H]3c4ccccc4Cc4ccc(F)cc4[C@H]3O2)CC1` [Compound 5] was tested. Which IC50 [1, 4] did it give?
**A.** 14.5 nM

**Q.** What about the IC50 [2, 5] of the same molecule?
**A.** 19.1 nM

**Q.** And the IC50 [3, 6]?
**A.** 7.41 nM

**Q.** Which IC50 [1, 4] does the source give for `Fc1ccc2c(c1)[C@H]1O[C@@H](CN3CCCCCC3)C[C@@H]1c1ccccc1C2` [Compound 10] here?
**A.** 9.77 nM

**Q.** And the IC50 [2, 5]?
**A.** 3.09 nM

**Q.** What about the IC50 [3, 6] of the same molecule?
**A.** 16.2 nM

**Q.** How did the IC50 [1, 4] turn out when `CC1CCN(C[C@H]2C[C@@H]3c4ccccc4Cc4ccc(F)cc4[C@H]3O2)CC1` [Compound 12] was run?
**A.** 3.89 nM

**Q.** What about the IC50 [2, 5] of the same molecule?
**A.** 1 nM

**Q.** And the IC50 [3, 6]?
**A.** 1.35 nM

**Q.** Which results are given for `Fc1ccc2c(c1)C1OC(CN3CCCCC3)CC1c1ccccc1C2` (stereo not drawn) [Compound 17]?
**A.** IC50 [1, 4]: 1.91 nM; IC50 [2, 5]: 1 nM; IC50 [3, 6]: 5.89 nM

**Q.** With `CCOC(=O)N1CCN(C[C@H]2C[C@@H]3c4ccccc4Cc4ccc(F)cc4[C@H]3O2)CC1` [Compound 20] as the molecule, how does the IC50 [1, 4] read?
**A.** 4.27 nM

**Q.** And the IC50 [2, 5]?
**A.** 9.55 nM

**Q.** And the IC50 [3, 6]?
**A.** 33.1 nM

**Q.** `CC(C)C(=O)N1CCN(C[C@H]2C[C@@H]3c4ccccc4Cc4ccc(F)cc4[C@H]3O2)CC1` [Compound 22] was tested. Which IC50 [1, 4] did it give?
**A.** 3.8 nM

**Q.** And the IC50 [2, 5]?
**A.** 39.8 nM

**Q.** What about the IC50 [3, 6] of the same molecule?
**A.** 34.7 nM

**Q.** `OC(CN1CCN(C[C@H]2C[C@@H]3c4ccccc4Cc4ccc(F)cc4[C@H]3O2)CC1)c1ccccc1` (stereo partly drawn) [Compound 27] was tested. Which IC50 [1, 4] did it give?
**A.** 9.55 nM

**Q.** And the IC50 [2, 5]?
**A.** 20.4 nM

**Q.** And the IC50 [3, 6]?
**A.** 4.07 nM

**Q.** Which results are given for `OC(Cc1ccccc1)CN1CCN(CC2CC3c4ccccc4Cc4ccc(F)cc4C3O2)CC1` (stereo not drawn) [Compound 28]?
**A.** IC50 [1, 4]: 4.79 nM; IC50 [2, 5]: 10.7 nM; h-D2L pIC50 [3, 7]: 8.34; IC50 [3, 6]: 4.57 nM

**Q.** With `CCCCC(O)CN1CCN(CC2CC3c4ccccc4Cc4ccc(F)cc4C3O2)CC1` (stereo not drawn) [Compound 29] as the molecule, how does the IC50 [1, 4] read?
**A.** 10 nM

**Q.** What about the IC50 [2, 5] of the same molecule?
**A.** 23.4 nM

**Q.** And the “h-D2L pIC50” value [3, 7]?
**A.** 8.22

**Q.** What about the IC50 [3, 6] of the same molecule?
**A.** 6.03 nM

**Q.** Which IC50 [1, 4] does the source give for `COC(=O)N1CCN(C[C@H]2C[C@@H]3c4ccccc4Cc4ccc(F)cc4[C@H]3O2)CC1` [Compound 31] here?
**A.** 4.68 nM

**Q.** And the IC50 [2, 5]?
**A.** 13.8 nM

**Q.** And the IC50 [3, 6]?
**A.** 14.1 nM

**Q.** For `CC(C)OC(=O)N1CCN(C[C@H]2C[C@@H]3c4ccccc4Cc4ccc(F)cc4[C@H]3O2)CC1` [Compound 32], which IC50 [1, 4] is on record?
**A.** 5.13 nM

**Q.** And the IC50 [2, 5]?
**A.** 32.4 nM

**Q.** What about the IC50 [3, 6] of the same molecule?
**A.** 22.9 nM

**Q.** For `CCCCOC(=O)N1CCN(C[C@H]2C[C@@H]3c4ccccc4Cc4ccc(F)cc4[C@H]3O2)CC1` [Compound 33], which IC50 [1, 4] is on record?
**A.** 11.7 nM

**Q.** What about the IC50 [2, 5] of the same molecule?
**A.** 38 nM

**Q.** What about the IC50 [3, 6] of the same molecule?
**A.** 17 nM

**Q.** For `CCOCCN1CCN(C[C@H]2C[C@@H]3c4ccccc4Cc4ccc(F)cc4[C@H]3O2)CC1` [Compound 34], which IC50 [1, 4] is on record?
**A.** 0.851 nM

**Q.** And the IC50 [2, 5]?
**A.** 5.01 nM

**Q.** What about the IC50 [3, 6] of the same molecule?
**A.** 2.51 nM

**Q.** With `COCCN1CCN(C[C@H]2C[C@@H]3c4ccccc4Cc4ccc(F)cc4[C@H]3O2)CC1` [Compound 35] as the molecule, how does the IC50 [1, 4] read?
**A.** 1.51 nM

**Q.** And the IC50 [2, 5]?
**A.** 7.41 nM

**Q.** What about the IC50 [3, 6] of the same molecule?
**A.** 3.09 nM

**Q.** `CC(C)(C)OCCN1CCN(C[C@H]2C[C@@H]3c4ccccc4Cc4ccc(F)cc4[C@H]3O2)CC1` [Compound 36] was tested. Which IC50 [1, 4] did it give?
**A.** 0.955 nM

**Q.** And the IC50 [2, 5]?
**A.** 5.5 nM

**Q.** And the IC50 [3, 6]?
**A.** 3.72 nM

**Q.** With `OCCN1CCN(C[C@H]2C[C@@H]3c4ccccc4Sc4ccc(F)cc4[C@H]3O2)CC1` [Compound 39] as the molecule, how does the IC50 [1, 4] read?
**A.** 0.692 nM

**Q.** And the IC50 [2, 5]?
**A.** 6.92 nM

**Q.** And the IC50 [3, 6]?
**A.** 2 nM

**Q.** How did the IC50 [1, 4] turn out when `CC(C)CN1CCN(C[C@H]2C[C@@H]3c4ccccc4Cc4ccc(F)cc4[C@H]3O2)CC1` [Compound 40] was run?
**A.** 26.9 nM

**Q.** And the IC50 [2, 5]?
**A.** 52.5 nM

**Q.** What about the IC50 [3, 6] of the same molecule?
**A.** 12.3 nM

**Q.** With `Fc1ccc2c(c1)[C@H]1O[C@@H](CN3CCN(CC(c4ccccc4)c4ccccc4)CC3)C[C@@H]1c1ccccc1C2` [Compound 41] as the molecule, how does the IC50 [1, 4] read?
**A.** 97.7 nM

**Q.** And the IC50 [2, 5]?
**A.** 295 nM

**Q.** And the IC50 [3, 6]?
**A.** 95.5 nM

**Q.** How did the IC50 [1] turn out when `Fc1ccc2c(c1)[C@H]1O[C@@H](CN3CCN(Cc4ccc(Cl)cc4)CC3)C[C@@H]1c1ccccc1C2` [Compound 42] was run?
**A.** 49 nM

**Q.** What about the IC50 [2] of the same molecule?
**A.** 77.6 nM

**Q.** What about the IC50 [3] of the same molecule?
**A.** 28.2 nM

**Q.** For `Cc1ccccc1CN1CCN(C[C@H]2C[C@@H]3c4ccccc4Cc4ccc(F)cc4[C@H]3O2)CC1` [Compound 43], which IC50 [1] is on record?
**A.** 40.7 nM

**Q.** What about the IC50 [2] of the same molecule?
**A.** 105 nM

**Q.** What about the IC50 [3] of the same molecule?
**A.** 44.7 nM

**Q.** How did the IC50 [1] turn out when `Fc1ccc2c(c1)[C@H]1O[C@@H](CN3CCN(Cc4ccccc4)CC3)C[C@@H]1c1ccccc1C2` [Compound 45] was run?
**A.** 18.6 nM

**Q.** And the IC50 [2]?
**A.** 45.7 nM

**Q.** And the IC50 [3]?
**A.** 7.94 nM

**Q.** What does the source list for `OC(CCN1CCN(C[C@H]2C[C@@H]3c4ccccc4Cc4ccc(F)cc4[C@H]3O2)CC1)c1ccc(F)cc1` (stereo partly drawn) [Compound 46]?
**A.** IC50 [1, 4]: 5.13 nM; IC50 [2, 5]: 8.51 nM; IC50 [3, 6]: 1.12 nM

**Q.** Which results are given for `Fc1ccc(CN2CCN(C[C@H]3C[C@@H]4c5ccccc5Cc5ccc(F)cc5[C@H]4O3)CC2)cc1` [Compound 47]?
**A.** IC50 [1]: 30.9 nM; IC50 [2]: 129 nM; IC50 [3]: 9.12 nM

**Q.** With `Fc1ccc2c(c1)[C@H]1O[C@@H](CN3CCN(Cc4ccc(C(F)(F)F)cc4)CC3)C[C@@H]1c1ccccc1C2` [Compound 48] as the molecule, how does the IC50 [1] read?
**A.** 234 nM

**Q.** What about the IC50 [2] of the same molecule?
**A.** 302 nM

**Q.** What about the IC50 [3] of the same molecule?
**A.** 85.1 nM

**Q.** With `OCCN1CCN(CC2CC3c4ccccc4Cc4ccc(F)cc4C3O2)CC1` (stereo not drawn) [Prior art compound 21from WO 99/19317, reference compound] as the molecule, how does the IC50 ([3]; Table 4, comparative data with prior art analogue, read-out: h-D2L pIC50 (converted)) read?
**A.** 110 nM
